Results: patent publication US20100093722A1, “HETEROARYL AND PHENYL SUBSTITUTED THIENO[2,3-d]PYRIMIDINES AND THEIR USE AS ADENOSINE A2a RECEPTOR ANTAGONISTS” (priority 2008, published 2010)

Legend:
[1] = target: T1, human A2a adenosine receptor (Homo sapiens, UniProt P29274); assay: Ligand Binding Assay for Adenosine A2a Receptor (A2A-B); conditions: plasma membrane of HEK293 cells containing human A2a receptor, radioligand [3H]CGS21680
T1 construct: purchased PerkinElmer RB-HA2a; host or cells: HEK293 plasma membrane
Method: Ligand Binding Assay for Adenosine A2a Receptor
Ligand binding assay of adenosine A2a receptor was performed using plasma membrane of HEK293 cells containing human A2a adenosine receptor (PerkinElmer, RB-HA2a) and radioligand [^3H]CGS21680 (PerkinElmer, NET1021). Assay was set up in 96-well polypropylene plate in total volume of 200 μL by sequentially adding 20 μL 1:20 diluted membrane, 130 μL assay buffer (50 mM Tris.HCl, pH 7.4 10 mM MgCl2, 1 mM EDTA) containing [^3H] CGS21680, 50 μL diluted compound (4×) or vehicle control in assay buffer. Nonspecific binding was determined by […] NECA. Reaction was carried out at room temperature for 2 hours before filtering through 96-well GF/C filter plate pre-soaked in 50 mM Tris.HCl, pH 7.4 containing 0.3% polyethylenimine. Plates were then washed 5 times with cold 50 mM Tris.HCl, pH 7.4, dried and sealed at the bottom. Microscintillation fluid 30 μL was added to each well and the top sealed. Plates were counted on Packard Topcount for [^3H]. Data was analyzed in Microsoft Excel and GraphPad Prism programs. (Varani, K.; Gessi, S.; Dalpiaz, A.; Borea, P. A. British Journal of Pharmacology, 1996, 117, 1693)

[2] = target: T2, human adenosine A1 receptor (Homo sapiens, UniProt P30542); assay: Adenosine A1 Receptor Functional Assay (A1GAL2); format: cell-based; conditions: CHO-K1 cells overexpressing human A1, cAMP inducible beta-galactosidase reporter, 4 nM r-PIA/1 uM Forskolin challenge
T2 construct: expressed in transfected cells; host or cells: CHO-K1
T2 sequence (P30542 1-326): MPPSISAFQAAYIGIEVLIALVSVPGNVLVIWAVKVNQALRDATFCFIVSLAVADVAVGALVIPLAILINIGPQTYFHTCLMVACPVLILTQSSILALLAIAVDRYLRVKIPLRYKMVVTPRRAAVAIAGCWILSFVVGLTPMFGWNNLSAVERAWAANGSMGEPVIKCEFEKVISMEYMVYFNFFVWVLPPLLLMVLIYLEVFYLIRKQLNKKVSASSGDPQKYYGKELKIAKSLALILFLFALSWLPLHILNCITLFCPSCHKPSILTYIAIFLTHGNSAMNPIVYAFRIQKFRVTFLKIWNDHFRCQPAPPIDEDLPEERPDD
Method: Adenosine A1 Receptor Functional Assay (A1GAL2)
To initiate the functional assay, cryopreserved CHO-K1 cells overexpressing the human adenosine A1 receptor and containing a cAMP inducible beta-galactosidase reporter gene were thawed, centrifuged, DMSO containing media removed, and then seeded with fresh culture media into clear 384-well tissue culture treated plates (BD #353961) at a concentration of 10K cells/well. Prior to assay, these plates were cultured for two days at 37+ C., 5% CO2, 90% Rh. On the day of the functional assay, culture media was removed and replaced with 45 uL assay medium (Hams/F-12 Modified (Mediatech #10-080CV) supplemented w/0.1% BSA). Test compounds were diluted and 11 point curves created at a 1000× concentration in 100% DMSO. Immediately after addition of assay media to the cell plates, 50 nL of the appropriate test compound antagonist or agonist control curves were added to cell plates using a Cartesian Hummingbird. Compound curves were allowed to incubate at room temperature on cell plates for approximately 15 minutes before addition of a 4 nM r-PIA (Sigma P4532)/1 uM Forskolin (Sigma F3917) agonist challenge (5 uL volume). A control curve of r-PIA in 1 uM Forskolin, a DMSO/Media control, and a single dose of Forskolin were also included on each plate. After additions, cell plates were allowed to incubate at 37° C., 5% CO2, 90% Rh for 5.5-6 hours. After incubation, media was removed, and cell plates were washed 1× 50 uL with DPBS w/o Ca & Mg (Mediatech 21-031-CV). Into dry wells, 20 uL of 1× Reporter Lysis Buffer (Promega E3971 (diluted in dH2O from 5× stock)) was added to each well and plates frozen at −20° C. overnight. For β-galactosidase enzyme calorimetric assay, plates were thawed out at room temperature and 20 μL 2× assay buffer (Promega) was added to each well. Color was allowed to develop at 37° C., 5% CO2, 90% Rh for 1-1.5 h or until reasonable signal appeared. The calorimetric reaction was stopped with the addition of 60 μL/well 1M sodium carbonate. Plates were counted at 405 nm on a SpectraMax Microplate Reader (Molecular Devices). Data was analyzed in Microsoft Excel and IC/EC50 curves were fit using a standardized macro.

[3] = target: T3, human adenosine A2a receptor (Homo sapiens, UniProt P29274); assay: Adenosine A2a Receptor Functional Assay (A2AGAL2); format: cell-based; conditions: CHO-K1 cells overexpressing human A2a, cAMP inducible beta-galactosidase reporter, 15 nM NECA agonist challenge
T3 construct: expressed in transfected cells; host or cells: CHO-K1
Method: Adenosine A2a Receptor Functional Assay (A2AGAL2)
To initiate the functional assay, cryopreserved CHO-K1 cells overexpressing the human adenosine A2a receptor and containing a cAMP inducible beta-galactosidase reporter gene were thawed, centrifuged, DMSO containing media removed, and then seeded with fresh culture media into clear 384-well tissue culture treated plates (BD #353961) at a concentration of 10K cells/well. Prior to assay, these plates were cultured for two days at 37° C., 5% CO2, 90% Rh. On the day of the functional assay, culture media was removed and replaced with 45 uL assay medium (Hams/F-12 Modified (Mediatech #10-080CV) supplemented w/0.1% BSA). Test compounds were diluted and 11 point curves created at a 1000× concentration in 100% DMSO. Immediately after addition of assay media to the cell plates, 50 nL of the appropriate test compound antagonist or agonist control curves were added to cell plates using a Cartesian Hummingbird. Compound curves were allowed to incubate at room temperature on cell plates for approximately 15 minutes before addition of a 15 nM NECA (Sigma E2387) agonist challenge (5 uL volume). A control curve of NECA, a DMSO/Media control, and a single dose of Forskolin (Sigma F3917) were also included on each plate. After additions, cell plates were allowed to incubate at 37° C., 5% CO2, 90% Rh for 5.5-6 hours. After incubation, media was removed, and cell plates were washed 1× 50 uL with DPBS w/o Ca & Mg (Mediatech 21-031-CV). Into dry wells, 20 uL of 1× Reporter Lysis Buffer (Promega E3971 (diluted in dH2O from 5× stock)) was added to each well and plates frozen at −20° C. overnight. For β-galactosidase enzyme calorimetric assay, plates were thawed out at room temperature and 20 μL 2× assay buffer (Promega) was added to each well. Color was allowed to develop at 37° C., 5% CO2, 90% Rh for 1-1.5 h or until reasonable signal appeared. The calorimetric reaction was stopped with the addition of 60 μL/well 1M sodium carbonate. Plates were counted at 405 nm on a SpectraMax Microplate Reader (Molecular Devices). Data was analyzed in Microsoft Excel and IC/EC50 curves were fit using a standardized macro.

T1 sequence (P29274 whole entry): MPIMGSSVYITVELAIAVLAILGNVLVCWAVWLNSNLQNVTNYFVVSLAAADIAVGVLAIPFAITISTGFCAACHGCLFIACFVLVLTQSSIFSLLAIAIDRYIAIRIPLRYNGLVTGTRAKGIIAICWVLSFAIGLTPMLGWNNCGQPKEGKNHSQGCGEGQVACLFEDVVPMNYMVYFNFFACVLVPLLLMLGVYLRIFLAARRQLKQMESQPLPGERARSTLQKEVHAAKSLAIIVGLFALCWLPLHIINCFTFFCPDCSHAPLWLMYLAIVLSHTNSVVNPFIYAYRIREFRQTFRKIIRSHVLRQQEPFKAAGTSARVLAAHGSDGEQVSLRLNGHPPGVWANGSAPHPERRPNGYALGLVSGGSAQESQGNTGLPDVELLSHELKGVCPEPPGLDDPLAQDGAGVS
T3 sequence (P29274 whole entry): as above

Row | Ki [1] [nM] | Ki [2] [nM] | Ki [3] [nM] | SMILES
1 | 12.1 | 168 | 9.25 | COc1ncccc1C(O)c1cc2c(N)nc(-c3cccc(C#N)c3)nc2s1 (stereo not drawn) [Example 9, 3-{4-Amino-6-[hydroxy-(2-methoxy-pyridin-3-yl)-methyl]-thieno[2,3-d]pyrimidin-2-yl}-benzonitrile]
2 | 34.2 | 101 | 14.4 | COc1ncccc1Cc1cc2c(N)nc(-c3cccc(C#N)c3)nc2s1 [Example 10, 3-[4-Amino-6-(2-methoxy-pyridin-3-ylmethyl)-thieno[2,3-d]pyrimidin-2-yl]-benzonitrile]
3 | 34.3 | 152 | 5.04 | N#Cc1cccc(-c2nc(N)c3cc(C(O)c4ccccn4)sc3n2)c1 (stereo not drawn) [Example 15, 3-[4-Amino-6-(hydroxy-pyridin-2-yl-methyl)-thieno[2,3-d]pyrimidin-2-yl]-benzonitrile]
4 | 43.8 | 412 | 12.3 | N#Cc1cccc(-c2nc(N)c3cc(C(O)c4ccncc4Cl)sc3n2)c1 (stereo not drawn) [Example 21, 3-{4-Amino-6-[(3-chloro-pyridin-4-yl)-hydroxy-methyl]-thieno[2,3-d]pyrimidin-2-yl}-benzonitrile]
5 | 61.9 | 347 | 16.3 | N#Cc1cccc(-c2nc(N)c3cc(C(O)c4cccnc4Cl)sc3n2)c1 (stereo not drawn) [Example 30, 3-{4-Amino-6-[(2-chloro-pyridin-3-yl)-hydroxy-methyl]-thieno[2,3-d]pyrimidin-2-yl}-benzonitrile]
6 | 6.66 | 84.2 | 4.44 | COc1cccnc1C(O)c1cc2c(N)nc(-c3cccc(C#N)c3)nc2s1 (stereo not drawn) [Example 33, 3-{4-Amino-6-[hydroxy-(3-methoxy-pyridin-2-yl)-methyl]-thieno[2,3-d]pyrimidin-2-yl}-benzonitrile]
7 | 20.2 | 26.1 | 1.24 | COc1cccnc1Cc1cc2c(N)nc(-c3cccc(C#N)c3)nc2s1 [Example 34, 3-[4-Amino-6-(3-methoxy-pyridin-2-ylmethyl)-thieno[2,3-d]pyrimidin-2-yl]-benzonitrile]
8 | 28.4 | 713 | 11.4 | N#Cc1cccc(-c2nc(N)c3cc(Cc4cccnc4Cl)sc3n2)c1 [Example 35, 3-[4-Amino-6-(2-chloro-pyridin-3-ylmethyl)-thieno[2,3-d]pyrimidin-2-yl]-benzonitrile]
9 | 57.8 | 30 | 1.41 | N#Cc1cccc(-c2nc(N)c3cc(Cc4ncccc4F)sc3n2)c1 [Example 38, 3-[4-Amino-6-(3-fluoro-pyridin-2-ylmethyl)-thieno[2,3-d]pyrimidin-2-yl]-benzonitrile]
